Experimental data from patent US8999959B2, “Drug for treating liver lesions caused by the action of chemical or biological agents” (priority 2010, dated 2015).

Key:
[1] = test system: toxic hepatitis caused by carbon tetrachloride (CCl4); test: Treatment of acute toxic hepatitis (CCl4) in rats by parenteral (intravenous) administration; format: in vivo; parameters: Total bilirubin, serum: unit not given here
Method: Treatment of toxic hepatitis by means of parenteral administration of the inventive substance. Acute toxic hepatitis was induced in rats by means of intragastric administration of 50% solution of carbon tetrachloride (CCl4) in olive oil in the amount of 1 ml/kg during 6 days. After 10 days the presence of toxic hepatitis was confirmed by morphological image of liver in all experimental animals. Starting from that day, for 10 days the preparations were administered to the experimental animals by way of treatment, once every 24 hours.
Essentiale was used as the preparation for comparison, which was administered in ampoules in the amount of 1 ml/100 g intravenously, slowly, into the caudal vein. The inventive substance was also administered intravenously in varying amounts in order to refine the treatment procedure. The effectiveness of treatment was evaluated on the basis of clinical performance, body weight dynamics, relative liver mass, the contents of bilirubin, transaminases, phosphatases, ceruloplasmin, total protein, blood serum lipids, the contents of glycogen, glutathione, SH-groups, stress tests (hexenal test, bromsulphalein test) and the histological pattern of liver.
Weight dynamics of the rats were determined by means of scales VLR-500. Liver of the animals was weighted using electronic scales 1602 MP by “Sartorius”. The contents of reduced glutathione in liver and the content of sulfhydryl groups in blood serum was evaluated by amperometric titration according to Rubinnaya N. S. (Stalnaya I.D., Garishvili T. G Modern methods in biochemistry. Moscow, Meditsina, 1977, pp. 66-68), the contents of glycogen—by the Samodi method (Stalnaya I.D., Garishvili T. G Modern methods in biochemistry. Moscow, Meditsina, 1977, pp. 66-68). The antitoxic function of liver was evaluated by the duration of hexenal sleep (70 mg per 1 kg of body weight), and the excretory function of liver was assessed by means of bromsulphalein test.
Blood for biochemical tests was obtained by means of paracentesis of the caudal vein of rats.
The activity of ALT, AST, ALP, ACP, LDH, thymol test, the contents of total protein and lipids, cholesterol, blood serum bilirubin were assessed by means of sets Bio-Lat-Test manufactured by a Czech company “Lachema”, the contents of ceruloplasmin were assessed according to Babenko (Laboratory research methods in clinical practice. Reference book, under the editorship of V. V. Menshikov. Moscow, Russia—Meditsina, 1987, p. 365). The animals were killed by decapitation, subjected to anatomicopathological autopsy and histological study. The experimental and reference rats were killed by means of decapitation. The material was fixed in 10-15% formaldehyde and embedded in paraffin. Paraffin slices were stained by means of hematoxylin and eosin. Fixed frozen slices were stained for fat by means of Sudan III.
Statistical processing of the experiments' results was done according to Student's T-distribution and F-distribution.
The effectiveness of preparations was assessed according to several groups of indices: morphometric, biochemical and functional. First of all the clinical performance of intoxication was observed. The clinical performance in the group of rats that received CCl4 with no treatment was characterized by hypodynamia, dormancy, disheveled hair and untidy appearance of the animals. They gained weight less well than the other rats. In this group, by day 15 of the study 80% of animals were dead.

[2] = test system: liver cirrhosis induced by carbon tetrachloride (CCl4); test: Treatment of liver cirrhosis (CCl4) in rats by oral administration; format: in vivo; parameters: Relative liver mass: unit not given here
Method: Treatment of liver cirrhosis by oral administration of the inventive substance. Liver cirrhosis was induced in rats by means of intragastric administration of 50% solution of carbon tetrachloride (CCl4) in olive oil in the amount of 1 ml/kg during 10 days. After 20 days the presence of liver cirrhosis was confirmed by morphological image of liver in all laboratory animals. Starting from that day, for 10 days the inventive agent was administered to the laboratory animals by way of treatment, once every 24 hours, in varying amounts in order to refine the optimal treatment procedure.
The effectiveness of the inventive preparation was evaluated in comparison with Essentiale by several groups of indices: morphometric, biochemical and functional. First of all the clinical performance of intoxication was observed. The clinical performance in the group of rats that received CCl4 with no treatment was characterized by hypodynamia, dormancy, disheveled hair and untidy appearance of the animals. They gained weight less well than the other rats. In this group by day 15 of the study 80% of the animals were dead, in the group that received Essentiale—60%, in the group that received the inventive agent—40%.
Quantitative assessment of the preparation's effectiveness in treatment of toxic hepatitis was performed using a point rating system, taking into account the marker indices: the largest score for each index was assigned to the group with the more pronounced positive effect of the preparation.

[3] = CCl4 intoxication, after 10 days i.v. treatment, inventive substance 25 mg/kg, Essentiale 1 ml/100 g, M ± m
[4] = point rating system, larger score = more pronounced positive effect, inventive substance 180 mg/kg, Essentiale 100 mg/kg
[5] = rats, CCl4 intoxication (cirrhosis), after 10 days oral treatment, inventive substance 90 mg/kg, Essentiale 100 mg/kg, M ± m
[6] = rats, CCl4 liver cirrhosis, oral treatment

O=Nc1c(O)n(-c2ccc(Br)cc2)c(=O)[nH]c1=O [The inventive substance, 1-(4-bromophenyl)-6-hydroxy-5-nitroso-1,2,3,4-tetrahydropyrimidine-2.4-dione] showed a Body weight ([1]; CCl4 intoxication, after 10 days i.v. treatment once every 24 h, inventive substance 25 mg/kg, Essentiale 1 ml/100 g, M ± m) of 174 ± 8 g, a Hexenal sleep ([1]; CCl4 intoxication, after 10 days i.v. treatment, hexenal 70 mg/kg, inventive substance 25 mg/kg, Essentiale 1 ml/100 g, M ± m) of 31.0 ± 2.0 min and an ACP [1, 3] of 0.75 ± 0.10 μkat/l. The “Alanine aminotransferase, serum” value [1, 3] was 0.85 ± 0.08 µmol/s/L, the “Alkaline phosphatase, serum” value [1, 3] was 811 ± 26.3 nmol/s/L and the “Aspartate aminotransferase, serum” value [1, 3] was 0.32 ± 0.04 µmol/s/L. For the same compound, the “Ceruloplasmin, serum” value [1, 3] was 477 ± 44 mg/L, the “Cholesterol, serum” value [1, 3] was 1.70 ± 0.19 mmol/L and the “Concentration of bromsulphalein at 10th minute after administrating the serum, extinction,” value [1, 3] was 13.5 ± 1.6 extinction. The “Glycogen, liver” value [1, 3] was 2691 ± 191 mg %, the LDH [1, 3] was 5.49 ± 0.45 mmol/h/L and the “Reduced glutathione, liver” value [1, 3] was 164 ± 10 mg %. For the same compound, the Relative liver mass [1, 3] was 27.87 ± 1.03 g/kg, the “SH-groups, serum” value [1, 3] was 1554 ± 72 mg % and the Thymol test [1, 3] was 1.18 ± 0.17 turbidity units. For the same compound, the “Total bilirubin, serum” value [1, 3] was 3.8 ± 0.5, the “Total lipids, serum” value [1, 3] was 3.4 ± 0.09 g/L and the “Total protein, serum” value [1, 3] was 69 ± 6 g/L. The “microvesicular focal steatosis (liver histology, in words)” value ([1]; CCl4 toxic hepatitis, after i.v. treatment) was “absence of microvesicular focal steatosis”, the “percentage of deaths in the groups by the end of the treatment” value ([1]; CCl4 toxic hepatitis, day 20, 40% dead by start of treatment (day 10), inventive substance 25 mg/kg i.v., Essentiale 1 ml/100 g i.v.) was 40% and the “manifestations of intoxication (clinical performance, in words)” value ([1]; CCl4 toxic hepatitis, i.v. treatment) was “reduced or almost completely arrested the manifestations of intoxication”. For the same compound, the “Quantitative assessment of effectiveness, ALP score” value [2, 4] was 11 points, the “Quantitative assessment of effectiveness, ALT score” value [2, 4] was 7 points and the “Quantitative assessment of effectiveness, AST score” value [2, 4] was 7 points. The “Quantitative assessment of effectiveness, Hexenal sleep score” value [2, 4] was 10 points, the “Quantitative assessment of effectiveness, Weight coefficient score” value [2, 4] was 10 points and the Body weight ([2]; rats, CCl4 intoxication (cirrhosis), after 10 days oral treatment once every 24 h, inventive substance 90 mg/kg, Essentiale 100 mg/kg, M ± m) was 174 ± 7 g. For the same compound, the “Alanine aminotransferase, serum” value [2, 5] was 0.85 ± 0.08 µmol/s/L, the “Alkaline phosphatase, serum” value [2, 5] was 811 ± 26.3 nmol/s/L and the “Aspartate aminotransferase, serum” value [2, 5] was 0.32 ± 0.04 µmol/s/L. For the same compound, the Hexenal sleep [2, 5] was 31.0 ± 2.0 min, the Relative liver mass [2, 5] was 27.87 ± 1.03 and the “degenerative changes of the liver (histology, in words)” value ([2]; rats, CCl4 liver cirrhosis, after oral treatment, majority of rats) was “no degenerative changes of the liver”. For the same compound, the “condition and function of liver (in words)” value [2, 6] was “virtually completely and reliably normalized the condition and function of liver”, the “manifestations of intoxication (clinical performance, in words)” value [2, 6] was “reduced or almost completely arrested the manifestations of intoxication” and the “animals dead by day 15 of the study” value ([2]; rats, CCl4 liver cirrhosis, oral treatment, untreated CCl4 group 80%) was 40%. The “Quantitative assessment of effectiveness, Total points” value ([2]; sum of marker index scores, inventive substance 180 mg/kg, Essentiale 100 mg/kg) was 45 points.
